One assay deals with T1, M4 (Homo sapiens, UniProt P08173).
T1 construct: gene CHRM4; full-length receptor; HEK293 with TRUPATH sensors (function)
T1 sequence (P08173 1-479): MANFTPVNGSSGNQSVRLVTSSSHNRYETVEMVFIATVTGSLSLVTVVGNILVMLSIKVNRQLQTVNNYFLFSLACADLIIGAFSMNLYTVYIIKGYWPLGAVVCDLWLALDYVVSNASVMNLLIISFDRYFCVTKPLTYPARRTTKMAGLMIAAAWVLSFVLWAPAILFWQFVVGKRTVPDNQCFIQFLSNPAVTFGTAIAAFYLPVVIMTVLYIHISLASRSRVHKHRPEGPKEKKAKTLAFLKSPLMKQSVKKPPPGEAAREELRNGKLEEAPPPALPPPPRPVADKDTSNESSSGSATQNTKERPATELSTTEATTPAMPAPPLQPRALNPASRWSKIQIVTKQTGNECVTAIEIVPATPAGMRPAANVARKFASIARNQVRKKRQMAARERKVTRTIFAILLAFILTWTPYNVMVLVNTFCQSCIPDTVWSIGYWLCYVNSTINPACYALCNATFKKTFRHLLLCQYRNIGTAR
The assay is described as follows: competitive radioligand binding, HEK293 membranes.

For the next assay, the target named is T2, CHRM1 (Homo sapiens, UniProt P11229).
T2 sequence (P11229 1-460): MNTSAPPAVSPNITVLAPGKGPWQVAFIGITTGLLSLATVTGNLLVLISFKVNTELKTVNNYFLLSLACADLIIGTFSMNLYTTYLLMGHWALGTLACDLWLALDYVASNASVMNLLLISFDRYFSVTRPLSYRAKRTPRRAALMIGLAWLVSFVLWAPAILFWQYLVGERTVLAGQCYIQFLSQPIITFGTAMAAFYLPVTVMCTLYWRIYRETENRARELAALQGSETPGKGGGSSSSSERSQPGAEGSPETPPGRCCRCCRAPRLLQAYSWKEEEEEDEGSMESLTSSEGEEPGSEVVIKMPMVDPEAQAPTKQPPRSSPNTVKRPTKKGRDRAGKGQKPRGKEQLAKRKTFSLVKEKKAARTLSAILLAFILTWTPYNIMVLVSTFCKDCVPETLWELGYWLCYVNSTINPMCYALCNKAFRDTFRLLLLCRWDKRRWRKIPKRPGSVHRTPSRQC
The assay is described as follows: cell-based. Details: species or system HEK293; TRUPATH BRET2 G-protein dissociation; antagonist mode against agonist EC80. The conditions noted are these: HEK293, read-out: N-Desmethyl Xanomeline, Assay=Gq; agonist mode, % of control agonist.

Assay [1] addresses T3, HTR2C (Homo sapiens, UniProt P28335).
T3 sequence (P28335 1-458): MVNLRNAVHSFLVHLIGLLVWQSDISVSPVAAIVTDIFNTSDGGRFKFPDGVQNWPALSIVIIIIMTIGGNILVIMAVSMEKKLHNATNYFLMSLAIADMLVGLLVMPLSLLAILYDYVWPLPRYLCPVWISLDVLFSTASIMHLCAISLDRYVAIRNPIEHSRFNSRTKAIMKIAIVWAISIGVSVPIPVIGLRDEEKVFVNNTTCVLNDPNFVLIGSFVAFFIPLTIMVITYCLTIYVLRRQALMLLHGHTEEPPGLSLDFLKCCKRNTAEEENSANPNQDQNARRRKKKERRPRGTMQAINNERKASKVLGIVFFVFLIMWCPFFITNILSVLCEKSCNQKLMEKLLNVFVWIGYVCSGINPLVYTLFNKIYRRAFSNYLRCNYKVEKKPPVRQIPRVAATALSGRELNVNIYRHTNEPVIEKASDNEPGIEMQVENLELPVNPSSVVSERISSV
The assay is described as follows: cell-based. Details: species or system HEK293; TRUPATH BRET2 G-protein dissociation; antagonist mode against agonist EC80. To be noted: HEK293, read-out: N-Desmethyl Xanomeline, Assay=Gq; agonist mode, % of control agonist.

In assay [2] the target is T3, HTR2C. The assay is described as follows: cell-based. Details: species or system HEK293; Fluo-4 Direct calcium mobilization on FLIPR-Tetra. To be noted: Assay=Calcium; agonist mode.
For the next assay, the target named is CHRM3 (Homo sapiens, UniProt P20309). The assay is described as follows: cell-based. Details: species or system HTLA; PRESTO-Tango beta-arrestin2 recruitment, luciferase luminescence, concentration-response. To be noted: Assay=Tango; agonist mode.
Sequence of CHRM3 (P20309 whole entry): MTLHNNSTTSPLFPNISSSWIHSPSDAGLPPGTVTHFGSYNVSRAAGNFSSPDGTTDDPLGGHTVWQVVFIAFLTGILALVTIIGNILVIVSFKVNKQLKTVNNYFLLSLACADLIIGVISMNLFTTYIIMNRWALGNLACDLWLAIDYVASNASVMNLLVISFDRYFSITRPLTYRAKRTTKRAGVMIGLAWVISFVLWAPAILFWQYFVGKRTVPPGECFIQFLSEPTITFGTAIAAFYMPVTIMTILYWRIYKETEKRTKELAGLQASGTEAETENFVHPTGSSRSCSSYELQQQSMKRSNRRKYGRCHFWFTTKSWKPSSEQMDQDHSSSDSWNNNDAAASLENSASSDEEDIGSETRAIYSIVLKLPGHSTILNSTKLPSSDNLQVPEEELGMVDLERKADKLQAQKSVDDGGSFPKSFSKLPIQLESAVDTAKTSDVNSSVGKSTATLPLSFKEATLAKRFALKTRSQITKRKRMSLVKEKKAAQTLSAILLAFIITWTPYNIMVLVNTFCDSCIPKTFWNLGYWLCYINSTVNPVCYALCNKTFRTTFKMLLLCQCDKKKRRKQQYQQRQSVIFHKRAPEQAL
A further assay deals with SSTR4 (Homo sapiens, UniProt P31391). Kind of assay: cell-based. To be noted: Assay=Tango; agonist mode. Details: species or system HTLA; PRESTO-Tango beta-arrestin2 recruitment, luciferase luminescence, concentration-response.
Sequence of SSTR4 (P31391 whole entry): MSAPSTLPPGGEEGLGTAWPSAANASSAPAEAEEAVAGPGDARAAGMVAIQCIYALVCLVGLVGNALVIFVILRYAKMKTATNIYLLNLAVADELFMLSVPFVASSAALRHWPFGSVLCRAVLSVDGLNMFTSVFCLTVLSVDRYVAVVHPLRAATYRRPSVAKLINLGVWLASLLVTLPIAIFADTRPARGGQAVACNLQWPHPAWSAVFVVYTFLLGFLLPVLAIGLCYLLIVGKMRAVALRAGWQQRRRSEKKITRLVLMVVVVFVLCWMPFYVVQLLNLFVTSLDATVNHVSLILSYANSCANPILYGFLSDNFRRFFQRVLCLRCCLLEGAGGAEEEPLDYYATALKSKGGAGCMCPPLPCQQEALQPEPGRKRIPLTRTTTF
For another assay, the target named is HTR2A (Homo sapiens, UniProt P28223). Kind of assay: cell-based. The conditions noted are these: HEK293, read-out: N-Desmethyl Xanomeline, Assay=Gq; agonist mode, % of control agonist. Details: TRUPATH BRET2 G-protein dissociation; antagonist mode against agonist EC80.
Sequence of HTR2A (P28223 whole entry): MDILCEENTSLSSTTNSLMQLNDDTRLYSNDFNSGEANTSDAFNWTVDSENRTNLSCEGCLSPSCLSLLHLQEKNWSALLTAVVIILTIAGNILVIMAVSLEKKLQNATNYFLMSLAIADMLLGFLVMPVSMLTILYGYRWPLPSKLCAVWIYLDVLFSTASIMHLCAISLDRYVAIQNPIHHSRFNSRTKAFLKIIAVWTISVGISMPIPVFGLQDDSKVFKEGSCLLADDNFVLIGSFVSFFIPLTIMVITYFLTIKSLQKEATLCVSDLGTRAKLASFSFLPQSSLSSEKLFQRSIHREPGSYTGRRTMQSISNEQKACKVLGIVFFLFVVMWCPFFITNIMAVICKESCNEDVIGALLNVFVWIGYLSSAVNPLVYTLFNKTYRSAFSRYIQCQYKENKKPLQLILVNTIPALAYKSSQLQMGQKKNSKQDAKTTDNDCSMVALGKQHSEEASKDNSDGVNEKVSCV
The next assay addresses T4, 5-HT5A (Homo sapiens, UniProt P47898).
T4 construct: gene HTR5A; full-length receptor; HEK293 cell membranes
The assay is described as follows: competitive radioligand binding, HEK293 membranes. The text has this:
competitive radioligand binding, HEK293 membranes on 5-HT5A

Another assay has as its target T5, DRD4 (Homo sapiens, UniProt P21917).
T5 sequence (P21917 1-419): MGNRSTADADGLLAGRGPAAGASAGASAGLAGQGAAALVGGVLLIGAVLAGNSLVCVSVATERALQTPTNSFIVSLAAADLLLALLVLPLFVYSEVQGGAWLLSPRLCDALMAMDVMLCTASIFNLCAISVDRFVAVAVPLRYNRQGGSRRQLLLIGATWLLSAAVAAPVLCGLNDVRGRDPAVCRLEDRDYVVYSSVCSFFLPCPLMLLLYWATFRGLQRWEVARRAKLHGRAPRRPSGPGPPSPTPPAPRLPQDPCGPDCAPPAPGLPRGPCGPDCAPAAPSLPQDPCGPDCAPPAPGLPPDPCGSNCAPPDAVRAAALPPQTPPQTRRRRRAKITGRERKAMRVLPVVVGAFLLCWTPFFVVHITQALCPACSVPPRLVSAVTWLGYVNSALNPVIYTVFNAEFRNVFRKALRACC
The assay is described as follows: cell-based. Details: species or system HTLA; PRESTO-Tango beta-arrestin2 recruitment, luciferase luminescence, concentration-response. The conditions noted are these: Assay=Tango; agonist mode.

SMILES strings stand for the structures.

T4 sequence (P47898 whole entry): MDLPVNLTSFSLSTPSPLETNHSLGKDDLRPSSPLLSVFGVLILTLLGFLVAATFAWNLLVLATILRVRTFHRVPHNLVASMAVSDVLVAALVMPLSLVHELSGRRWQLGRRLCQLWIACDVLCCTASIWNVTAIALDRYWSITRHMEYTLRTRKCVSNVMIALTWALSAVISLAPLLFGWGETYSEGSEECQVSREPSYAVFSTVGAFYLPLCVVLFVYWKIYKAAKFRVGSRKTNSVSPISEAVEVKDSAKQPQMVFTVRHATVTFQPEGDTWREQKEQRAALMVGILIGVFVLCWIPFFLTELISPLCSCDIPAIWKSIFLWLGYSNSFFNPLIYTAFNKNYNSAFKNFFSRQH

`CCCCCCOc1nsnc1C1=CCCNC1` [N-desmethylxanomeline]: at M4, the affinity corresponds to a Ki of 117 nM. For the same compound, the Emax on CHRM1 was determined as 95.9%; at HTR2C [1], 106%; on HTR2A, 98.1%. The EC50 (commonly the concentration that produces a half-maximal response) on HTR2C [2] is 1090 nM; at CHRM3, 104 nM; at SSTR4, 931 nM.

As for `CCCCCCOc1nsnc1C1=CCCN(C)C1` [Xanomeline], the Ki – broadly, the dissociation constant of the complex between target and ligand, obtained from inhibition or displacement – on 5-HT5A was 794 nM. Also, on DRD4, the EC50 was found to be 4800 nM.
